Experimental data as given in the NIST ThermoML archive (doi:10.1021/je900482x).

Assay: isobaric coefficient of expansion
Details: Liquid, Microcalorimeter

CCCCCCCC[n+]1ccn(C)c1.F[B-](F)(F)F [1-methyl-3-octylimidazolium tetrafluoroborate]
isobaric coefficient of expansion
Details | 5000 kPa | 10000 kPa | 15000 kPa | 20000 kPa | 25000 kPa | 30000 kPa | 35000 kPa | 40000 kPa | 45000 kPa | 50000 kPa
278.15 K | 0.000621 1/K | 0.000613 1/K | 0.000605 1/K | 0.000598 1/K | 0.00059 1/K | 0.000584 1/K | 0.000576 1/K | 0.000572 1/K | 0.000562 1/K | 0.000558 1/K
288.15 K | 0.000616 1/K | 0.000606 1/K | 0.0006 1/K | 0.000593 1/K | 0.000586 1/K | 0.000579 1/K | 0.000572 1/K | 0.000565 1/K | 0.000558 1/K | 0.000555 1/K
298.15 K | 0.00061 1/K | 0.000603 1/K | 0.000595 1/K | 0.000586 1/K | 0.00058 1/K | 0.000573 1/K | 0.000564 1/K | 0.000558 1/K | 0.000552 1/K | 0.000547 1/K
308.15 K | 0.000605 1/K | 0.000596 1/K | 0.000589 1/K | 0.000579 1/K | 0.000572 1/K | 0.000565 1/K | 0.00056 1/K | 0.000553 1/K | 0.000545 1/K | 0.000541 1/K
318.15 K | 0.000599 1/K | 0.000594 1/K | 0.000585 1/K | 0.000573 1/K | 0.000566 1/K | 0.00056 1/K | 0.000554 1/K | 0.000545 1/K | 0.000537 1/K | 0.000532 1/K
328.15 K | 0.000594 1/K | 0.000587 1/K | 0.00058 1/K | 0.000572 1/K | 0.000562 1/K | 0.000555 1/K | 0.000549 1/K | 0.00054 1/K | 0.000536 1/K | 0.000531 1/K
338.15 K | 0.000591 1/K | 0.000584 1/K | 0.000575 1/K | 0.000567 1/K | 0.000558 1/K | 0.000553 1/K | 0.000544 1/K | 0.000538 1/K | 0.000532 1/K | 0.000528 1/K
348.15 K | 0.000588 1/K | 0.000582 1/K | 0.000572 1/K | 0.000563 1/K | 0.000555 1/K | 0.000548 1/K | 0.000543 1/K | 0.000535 1/K | 0.000529 1/K | 0.000522 1/K

CCCC[n+]1cccc(C)c1.F[B-](F)(F)F [1-butyl-3-methylpyridinium tetrafluoroborate]
isobaric coefficient of expansion
Details | 5000 kPa | 10000 kPa | 15000 kPa | 20000 kPa | 25000 kPa | 30000 kPa | 35000 kPa | 40000 kPa | 45000 kPa | 50000 kPa
278.15 K | 0.000607 1/K | 0.000601 1/K | 0.000596 1/K | 0.000591 1/K | 0.000584 1/K | 0.000581 1/K | 0.000576 1/K | 0.00057 1/K | 0.000566 1/K | 0.00056 1/K
288.15 K | 0.0006 1/K | 0.000593 1/K | 0.000588 1/K | 0.000585 1/K | 0.000581 1/K | 0.000575 1/K | 0.000569 1/K | 0.000564 1/K | 0.000562 1/K | 0.000558 1/K
298.15 K | 0.000594 1/K | 0.000589 1/K | 0.000582 1/K | 0.000577 1/K | 0.000572 1/K | 0.000566 1/K | 0.00056 1/K | 0.000556 1/K | 0.000551 1/K | 0.000549 1/K
308.15 K | 0.000588 1/K | 0.000582 1/K | 0.000576 1/K | 0.000569 1/K | 0.000563 1/K | 0.00056 1/K | 0.000555 1/K | 0.000551 1/K | 0.000545 1/K | 0.000541 1/K
318.15 K | 0.00058 1/K | 0.000578 1/K | 0.000573 1/K | 0.000565 1/K | 0.00056 1/K | 0.000554 1/K | 0.000551 1/K | 0.000545 1/K | 0.000539 1/K | 0.000535 1/K
328.15 K | 0.000575 1/K | 0.00057 1/K | 0.000568 1/K | 0.00056 1/K | 0.000554 1/K | 0.000549 1/K | 0.000545 1/K | 0.000539 1/K | 0.000535 1/K | 0.000531 1/K
338.15 K | 0.000571 1/K | 0.000567 1/K | 0.000562 1/K | 0.000554 1/K | 0.000549 1/K | 0.000545 1/K | 0.000539 1/K | 0.000536 1/K | 0.00053 1/K | 0.000529 1/K
348.15 K | 0.000568 1/K | 0.000562 1/K | 0.000557 1/K | 0.000554 1/K | 0.000548 1/K | 0.000542 1/K | 0.00054 1/K | 0.000534 1/K | 0.000529 1/K | 0.000526 1/K
